According to patent publication US6743618B2, “Thermostable proteolytic enzymes and uses thereof in peptide and protein synthesis” (University of Florida Research Foundation, Inc., priority 1996, dated 2004):
Non-standard residues stand in square brackets, D forms with d. Residues, ends and D or L forms follow the SMILES beside them. *: point of attachment. pNA = O=[N+]([O-])c1ccc(N*)cc1; Cbz = O=C(OCc1ccccc1)*; Bz = O=C(c1ccccc1)*

Columns and labels:
[1] = test system: Pyrococcus furiosus serine protease (carboxypeptidase/endopeptidase), native, about 81 kDa, N-terminus SEQ ID NO: 1; assay: Kinetic studies and substrate specificity (hydrolysis of synthetic peptide and ester substrates; progress curves, Hanes plot); type: biochemical; conditions: for hydrolysis by the protease / product inhibition, Ki compared with Km: in words; for hydrolysis by the protease: at up to 80° C. for arg-pNA (TLC), Table 3 lists HA and ZGP at 25.0° C.; for Km / kcat: 0.025 M Na phosphate, pH 7.0, mean of at least 4 experiments (PPANA: initial velocities, Hanes equation)
Text: (§1) The hydrolysis kinetics of various synthetic peptide and ester protease substrates were studied. Two different methods have been used to analyze the kinetic properties of the enzyme. The first utilized initial velocity data at several substrate concentrations with analysis by plotting s/v νs s (Hanes plot). This method was always used when it was possible that the protease could cleave at more than one site (e.g., PPANA). The second method utilizes all data of the progress curve of the reaction. Progess curves were analyzed in two ways:
(§2) Instantaneous point by point derivatives were calculated from the absorbance νs time data by fitting 10 points spaced 1 second apart by least squares to a second degree polynomial. Derivatives were computed analytically and were used to construct plots of v νs s, which were then analyzed by non-linear regression to obtain Km, kcat and any product inhibition constant (Ki) if it exists. […] For all measurements at elevated temperature, the first-order rate constants for non-enzymic hydrolysis were determined for all substrates. The analytic method described here was used both for reactions at 25.0° C. and 80.0° C.
b. Integrated Rate Equation Analyses: t νs Absorbance
(§3) For these analyses, the integrated Michaelis-Menten equation was used, but not in linearized form, for reasons relating to product inhibition. Plots of time (now the dependent variable) νs absorbance were constructed from the raw data and analyzed by non-linear regression. […] This method was used for analyses at 25.0° C. only.
Subroutines for the above analyses were written to analyze the kinetic data for: product competitive inhibition, non-competitive inhibition, 2-product inhibition, and simple Michaelis-Menten kinetics. An HP 9000 series work station was used for this purpose, using HP BASIC.
(§4) All kinetic studies utilized a Cary 3E double beam spectrophotometer and absorbance νs time data were collected by computer at 1 second intervals. In cases where a peptide substrate could potentially be cleaved at more than one site, thin-layer chromatography was used to establish the products formed (silica gel; butanol:acetone:NH4OH:water—37:37:19:7).
(§5) All of the above are mean values from at least 4 separate experiments. Except for PPANA, values are means of v νs s and integrated rate equation analyses. PPANA values were obtained from initial velocity measurements, analyzed by the Hanes equation. Solvent: 0.025 M Na Phosphate, pH 7.0. […] N. D. means not determined.

[2] = target: T1, P. furiosus protease (Pyrococcus furiosus, UniProt Q8U3Y3); assay: Hydrolysis kinetics of synthetic peptide and ester substrates (progress curve / initial velocity analysis); type: biochemical; conditions: for Ki: read-out: Ki (product inhibition constant)
T1 sequence (Q8U3Y3 entry or part of it): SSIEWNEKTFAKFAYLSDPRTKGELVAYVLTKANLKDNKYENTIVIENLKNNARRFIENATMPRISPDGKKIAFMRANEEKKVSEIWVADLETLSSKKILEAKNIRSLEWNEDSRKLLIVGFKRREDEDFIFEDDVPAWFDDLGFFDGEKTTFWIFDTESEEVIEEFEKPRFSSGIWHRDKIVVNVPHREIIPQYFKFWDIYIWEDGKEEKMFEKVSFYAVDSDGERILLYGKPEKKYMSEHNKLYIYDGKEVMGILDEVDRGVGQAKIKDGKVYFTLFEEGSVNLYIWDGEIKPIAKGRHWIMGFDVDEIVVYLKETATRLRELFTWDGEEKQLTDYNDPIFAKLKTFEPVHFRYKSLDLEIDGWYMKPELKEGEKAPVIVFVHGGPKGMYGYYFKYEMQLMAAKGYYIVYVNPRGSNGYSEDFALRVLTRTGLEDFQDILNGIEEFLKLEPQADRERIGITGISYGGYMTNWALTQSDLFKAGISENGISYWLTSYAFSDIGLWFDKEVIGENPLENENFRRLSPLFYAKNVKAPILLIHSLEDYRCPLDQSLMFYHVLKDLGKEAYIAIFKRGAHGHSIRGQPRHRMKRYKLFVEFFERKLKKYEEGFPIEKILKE
Text: as §1, §2, §3, §4, §5

[3] = test system: Pyrococcus furiosus serine protease, native, about 81 kDa, N-terminus SEQ ID NO: 1; assay: Active site inhibitor studies (BAPNA as substrate); type: biochemical; conditions: 10^−3 M, incubation for 24 hr
Experimental: (§6) To assign the class of protease to which the P. furiosus protease belongs, several reagents were used to identify catalytically important residues.
a. Incubation of the enzyme with 10^−3 M EDTA for 24 hr had no effect upon enzyme activity.
b. One of the active-site inhibitors of mesophilic serine proteases is phe-pro-argCH2Cl. This reagent reacts rapidly and specifically with the active site histidine residue of the active site triad: ser-his-asp (Shaw, E. “Site-Specific Reagents for Chymotrypsin and Trypsin.” […]. 11:677-686, 1967).

[4] = target: T1, P. furiosus protease; assay: Active site inhibitor studies, BAPNA as substrate; type: biochemical
Text: as §6
b. […] This reagent reacts rapidly and specifically with the active site histidine residue of the active site triad: ser-his-asp (Shaw, E. “Site-Specific Reagents for Chymotrypsin and Trypsin.” […]. 11:677-686, 1967).

[5] = test system: trypsin; assay: BAPNA hydrolysis by trypsin (comparison); type: biochemical; conditions: BAPNA as substrate, same conditions (25.0 °C)
[6] = target: T1, P. furiosus protease; assay: Activation enthalpy and entropy from Arrhenius plots of initial velocities; type: biochemical
Experimental: For all kinetic experiments at high temperatures, sodium phosphate (0.025 M) was used as a buffer.
To explore the basis for the extremely large increases in enzyme activity with temperature, initial velocity (vo) measurements were made at 6 different substrate concentrations in order to determine kcat and Km at a series of temperatures in the range of 25.0 to 83.5° C. Temperature was controlled to within ±0.5° C. with a large water bath and jacketed cuvettes. Two substrates were used for these experiments—BAPNA and D-pro-phe-arg-pNA(PPANA).
Within the temperature range accessible to mesophilic enzymes, such plots are linear. […] The data was fitted to a second degree polynomial and the slopes determined as a function of temperature to compute Arrhenius activation energies. These values were used to compute activation enthalpy (ΔH*) and entrophy (ΔS*) as a function of temperature (Eyring, H. (1963) Modern Chemical Kinetics, Rheinhold, N.Y.).

[7] = target: T1, P. furiosus protease; assay: Product inhibition: initial rate measurements of BAPNA with varying product concentrations; type: biochemical
[8] = pK values used to calculate theoretical yield; type: physicochemical; conditions: for pK2: amine nucleophile; for pK1: carboxyl reactant
Experimental: Yield is defined as the ratio of product concentration to the initial concentration of the carboxyl reactant (in percent). Theoretical yield was calculated from equations 1, 2 and 3 together with pK1=3.81 (ZGL) and 4.47 (ZGE); pK2=7.93 (leu-NH2) and 7.51 (arg-NH2).

[9] = test system: serine protease of the subject invention; assay: Digestion of insulin B-chain, products by TLC; type: biochemical, Pyrococcus furiosus; conditions: 80° C., phosphate buffer, pH 7.0, 1 hour
Experimental: Treatment of the insulin B-chain with the serine protease of the subject invention (80° C., phosphate buffer, pH 7.0) for 1 hour yields 5 ninhydrin-positive components by TLC. No non-enzyme hydrolysis of substrate was detected after this time period. One of the new components is alanine which the carboxy terminus of the B-chain. None of the others is a free amino acid. These studies with insulin provide further evidence that the enzyme is an endopeptidase.

[10] = 25.0 °C, 0.025 M Na phosphate, pH 7.0, total progress curve analyses
[11] = 25.0 °C, BAPNA substrate, sodium phosphate 0.025 M pH 7.0, iodoacetamide 100-fold molar excess

O=C(CNC(=O)OCc1ccccc1)N[C@@H](Cc1ccccc1)C(=O)O [ZGP, carbobenzoxy-gly-phe] (Cbz-Gly-Phe-OH)
hydrolysis by the protease [1]: Remain Unaltered by the Enzyme | hydrolysis by the enzyme ([2]; 25.0 °C): Remain Unaltered

O=C(O)CN(CCN(CC(=O)O)CC(=O)O)CC(=O)O [EDTA]
effect upon enzyme activity [3]: no effect | effect upon enzyme activity [4]: no effect

N=C(N)NCCC[C@H](NC(=O)c1ccccc1)C(=O)Nc1ccc([N+](=O)[O-])cc1 [BAPNA, N-benzoyl-L-arginine-p-nitroanilide]
kcat [5]: 2.7 s⁻¹ | Ki compared with Km ([2]; 25.0 °C): Ki<Km | Ki times less than Km ([2]; 25.0 °C, Table 3): 10 | Ki [2, 10]: 70.8 µM | kcat at 80° C. relative to 25° C. (times greater) ([2]; 80 °C vs 25 °C): 65 | Ki ([2]; 80.0 °C, 0.025 M Na phosphate, pH 7.0, progress curve analysis): 220 µM | ΔH* (activation enthalpy) ([6]; 25.0 °C): 17.2 kcal/mol | ΔS* (activation entropy) ([6]; 25.0 °C): 2.2 e.u | ΔH* (activation enthalpy) ([6]; 80.0 °C): 3.1 kcal/mol | ΔS* (activation entropy) ([6]; 80.0 °C): −41.7 e.u

CCOC(=O)[C@H](Cc1ccc(O)cc1)NC(=O)c1ccccc1 [BTEE, benzoyl-tyrosine ethyl ester]
Ki [2, 10]: 5600 µM

N=C(N)NCCC[C@H](NC(=O)c1ccccc1)C(=O)O [benzoyl-L-arginine]
Ki [2, 10]: 70.8 µM | Ki ([7]; initial rate measurements of BAPNA with varying product concentration, read-out: Ki (inhibition constant of added product)): 65 µM

NC(=O)CI [iodoacetamide]
effect upon the activity of the enzyme [4, 11]: no effect whatsoever

N=C(N)NCCC[C@H](N)C(=O)Nc1ccc([N+](=O)[O-])cc1 [arg-pNA]
hydrolysis by the protease [1]: does not hydrolyze arg-pNA at all, even at 80 °C | hydrolysis by the protease (TLC) ([2]; even at 80° C.): does not hydrolyze

C[C@H](NC(=O)/C=C/c1ccco1)C(=O)N[C@@H](Cc1ccccc1)C(N)=O [FAAPA, furyl-acryloyl-ala-phe-amide]
Km ([1]; 25.0° C.): 38.6 µM | kcat ([1]; 25.0° C.): 7.31 s⁻¹ | product inhibition, Ki compared with Km [1]: Ki<Km

O=C(/C=C/c1ccco1)N[C@@H](Cc1ccccc1)C(=O)N[C@@H](Cc1ccccc1)C(=O)O [FAPP, furyl-acryloyl-phe-phe]
Km ([1]; 25.0° C.): 375 µM | kcat ([1]; 25.0° C.): 4.58 s⁻¹ | product inhibition, Ki compared with Km [1]: product inhibition is not observed

O=P(O)(O)O [sodium phosphate]
effect upon the activity of the enzyme ([4]; pH 7): no effect whatsoever

NC(=O)[C@@H](N)CCCN=C(N)N [arg-NH2]
pK2 [8]: 7.51

N=C(N)NCCC[C@H](NC(=O)CNC(=O)c1ccccc1)C(=O)O [HA, hippuryl-arginine] (Bz-Gly-Arg-OH)
hydrolysis by the protease [1]: Remain Unaltered by the Enzyme | hydrolysis by the enzyme ([2]; 25.0 °C): Remain Unaltered

N=C(N)NCCC[C@H](NC(=O)[C@@H]1CCCN1C(=O)[C@H](N)Cc1ccccc1)C(=O)CCl [phe-pro-argCH2Cl]
pseudo first order inactivation rate constant ([4]; inhibitor 1.98×10^−6 M, BAPNA 3.8×10^−4 M, 25.0 °C): 0.022 s⁻¹

O=S(=O)(F)Cc1ccccc1 [PMSF, phenyl-methyl-sulfonyl fluoride]
inhibition of enzyme activity ([4]; 8×10^3 molar excess over enzyme, BAPNA substrate, 25.0 °C): complete inhibition

CC(NC(=O)C(Cc1ccccc1)NC(=O)OCc1ccccc1)C(=O)O (centres unmarked) [ZPA, carbobenzoxy-phe-ala]
Ki compared with Km ([2]; 25.0 °C): Ki<Km | Ki [2, 10]: 134 µM

N=C(N)NCCC[C@H](NC(=O)[C@H](Cc1ccccc1)NC(=O)[C@H]1CCCN1)C(=O)Nc1ccc([N+](=O)[O-])cc1 [PPANA, D-pro-phe-arg-pNA] (H-[dP]-Phe-Arg-pNA)
Km ([1]; 25.0° C.): 477 µM | kcat ([1]; 25.0° C.): .045 s⁻¹ | Km ([1]; 80.0° C.): 499 µM | kcat ([1]; 80.0° C.): 5.44 s⁻¹ | kcat ratio 80° C./25° C. ([1]; kcat at 80° C. vs 25° C.): 120 times | ΔH* (activation enthalpy) ([6]; 25.0 °C): 26.1 kcal/mol | ΔS* (activation entropy) ([6]; 25.0 °C): 23.8 e.u | ΔH* (activation enthalpy) ([6]; 80.0 °C): 15.4 kcal/mol | ΔS* (activation entropy) ([6]; 80.0 °C): −9.0 e.u

CC(C)C[C@H](NC(=O)CNC(=O)/C=C/c1ccco1)C(N)=O [FAGLA, furyl-acryloyl-glycyl-leucine amide]
Ki compared with Km ([2]; 25.0 °C): Ki<Km | product inhibition ([2]; 25.0 °C): intense product inhibition | Km ([2]; 25.0 °C, 0.025 M Na phosphate, pH 7.0, PPANA from initial velocities (Hanes)): 6.08 µM | kcat ([2]; 25.0 °C, 0.025 M Na phosphate, pH 7.0, means of at least 4 experiments, PPANA from initial velocities (Hanes)): 0.67 s⁻¹

O=C(O)CC[C@H](NC(=O)CNC(=O)OCc1ccccc1)C(=O)O [ZGE, Z-gly-glu] (Cbz-Gly-Glu-OH)
pK1 [8]: 4.47

CC(C)C[C@H](N)C(N)=O [leu-NH2]
pK2 [8]: 7.93

CC(C)CC(NC(=O)CNC(=O)OCc1ccccc1)C(=O)O (centres unmarked) [ZGL, Z-gly-leu]
pK1 [8]: 3.81

O=C(O)CNC(=O)CNC(=O)[C@H](Cc1ccccc1)NC(=O)/C=C/c1ccco1 [FAPGG, furyl-acryloyl-phe-gly-gly]
Km ([1]; 25.0° C.): 415 µM | kcat ([1]; 25.0° C.): 10.64 s⁻¹ | product inhibition, Ki compared with Km [1]: No product inhibition is observed

O=C(O)c1cc(SSc2ccc([N+](=O)[O-])c(C(=O)O)c2)ccc1[N+](=O)[O-] [bisdithiodintrobenzene]
effect upon the activity of the enzyme [4, 11]: no effect whatsoever

insulin B-chain: insulin B-chain, used as a substrate; its carboxy terminus is alanine
ninhydrin-positive components by TLC [9]: 5

Nc1ccc([N+](=O)[O-])cc1 [p-nitroaniline]
inhibition by added product ([7]; concentrations as high as 5×10^−4 M, initial rates of BAPNA): no detectable inhibition
